Measurements taken from PMC3714338 (Analytical biochemistry, 2013).

Target: Mtb APR (adenosine 5′-phosphosulfate reductase; also MtbAPSR) (Mycobacterium tuberculosis, UniProt P9WIK3)
Assay: biochemical

Mtb APR (adenosine 5′-phosphosulfate reductase; also MtbAPSR), sequence (P9WIK3 whole entry, looked up): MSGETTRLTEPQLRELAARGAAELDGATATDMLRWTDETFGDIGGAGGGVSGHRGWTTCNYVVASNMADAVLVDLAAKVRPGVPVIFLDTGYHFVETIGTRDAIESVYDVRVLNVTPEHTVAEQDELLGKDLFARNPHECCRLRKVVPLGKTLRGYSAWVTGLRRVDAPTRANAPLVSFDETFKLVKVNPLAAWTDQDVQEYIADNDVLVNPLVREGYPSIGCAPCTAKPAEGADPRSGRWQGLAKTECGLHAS

SMILES: Nc1ncnc2c1ncn2[C@@H]1O[C@H](COP(=O)(O)OP(=O)(O)O)[C@@H](O)[C@H]1O [ADP]
- Ki: 83 ± 0.2 µM
